According to ChEMBL document CHEMBL6087433, “Discovery of ART0380, a Potent and Selective ATR Kinase Inhibitor Undergoing Phase 2 Clinical Studies for the Treatment of Advanced or Metastatic Solid Cancers” (J Med Chem, 2024):

Columns and labels:
[1] = molecular target: T1, Serine/threonine-protein kinase mTOR (Homo sapiens, UniProt P42345)
[2] = molecular target: T1, Serine/threonine-protein kinase mTOR; remark: listed apart in the source
in vitro = settings: human, human liver microsomes
[3] = molecular target: Serine/threonine-protein kinase ATR (Homo sapiens, UniProt Q13535)
Sequence of Serine/threonine-protein kinase ATR (Q13535 whole entry): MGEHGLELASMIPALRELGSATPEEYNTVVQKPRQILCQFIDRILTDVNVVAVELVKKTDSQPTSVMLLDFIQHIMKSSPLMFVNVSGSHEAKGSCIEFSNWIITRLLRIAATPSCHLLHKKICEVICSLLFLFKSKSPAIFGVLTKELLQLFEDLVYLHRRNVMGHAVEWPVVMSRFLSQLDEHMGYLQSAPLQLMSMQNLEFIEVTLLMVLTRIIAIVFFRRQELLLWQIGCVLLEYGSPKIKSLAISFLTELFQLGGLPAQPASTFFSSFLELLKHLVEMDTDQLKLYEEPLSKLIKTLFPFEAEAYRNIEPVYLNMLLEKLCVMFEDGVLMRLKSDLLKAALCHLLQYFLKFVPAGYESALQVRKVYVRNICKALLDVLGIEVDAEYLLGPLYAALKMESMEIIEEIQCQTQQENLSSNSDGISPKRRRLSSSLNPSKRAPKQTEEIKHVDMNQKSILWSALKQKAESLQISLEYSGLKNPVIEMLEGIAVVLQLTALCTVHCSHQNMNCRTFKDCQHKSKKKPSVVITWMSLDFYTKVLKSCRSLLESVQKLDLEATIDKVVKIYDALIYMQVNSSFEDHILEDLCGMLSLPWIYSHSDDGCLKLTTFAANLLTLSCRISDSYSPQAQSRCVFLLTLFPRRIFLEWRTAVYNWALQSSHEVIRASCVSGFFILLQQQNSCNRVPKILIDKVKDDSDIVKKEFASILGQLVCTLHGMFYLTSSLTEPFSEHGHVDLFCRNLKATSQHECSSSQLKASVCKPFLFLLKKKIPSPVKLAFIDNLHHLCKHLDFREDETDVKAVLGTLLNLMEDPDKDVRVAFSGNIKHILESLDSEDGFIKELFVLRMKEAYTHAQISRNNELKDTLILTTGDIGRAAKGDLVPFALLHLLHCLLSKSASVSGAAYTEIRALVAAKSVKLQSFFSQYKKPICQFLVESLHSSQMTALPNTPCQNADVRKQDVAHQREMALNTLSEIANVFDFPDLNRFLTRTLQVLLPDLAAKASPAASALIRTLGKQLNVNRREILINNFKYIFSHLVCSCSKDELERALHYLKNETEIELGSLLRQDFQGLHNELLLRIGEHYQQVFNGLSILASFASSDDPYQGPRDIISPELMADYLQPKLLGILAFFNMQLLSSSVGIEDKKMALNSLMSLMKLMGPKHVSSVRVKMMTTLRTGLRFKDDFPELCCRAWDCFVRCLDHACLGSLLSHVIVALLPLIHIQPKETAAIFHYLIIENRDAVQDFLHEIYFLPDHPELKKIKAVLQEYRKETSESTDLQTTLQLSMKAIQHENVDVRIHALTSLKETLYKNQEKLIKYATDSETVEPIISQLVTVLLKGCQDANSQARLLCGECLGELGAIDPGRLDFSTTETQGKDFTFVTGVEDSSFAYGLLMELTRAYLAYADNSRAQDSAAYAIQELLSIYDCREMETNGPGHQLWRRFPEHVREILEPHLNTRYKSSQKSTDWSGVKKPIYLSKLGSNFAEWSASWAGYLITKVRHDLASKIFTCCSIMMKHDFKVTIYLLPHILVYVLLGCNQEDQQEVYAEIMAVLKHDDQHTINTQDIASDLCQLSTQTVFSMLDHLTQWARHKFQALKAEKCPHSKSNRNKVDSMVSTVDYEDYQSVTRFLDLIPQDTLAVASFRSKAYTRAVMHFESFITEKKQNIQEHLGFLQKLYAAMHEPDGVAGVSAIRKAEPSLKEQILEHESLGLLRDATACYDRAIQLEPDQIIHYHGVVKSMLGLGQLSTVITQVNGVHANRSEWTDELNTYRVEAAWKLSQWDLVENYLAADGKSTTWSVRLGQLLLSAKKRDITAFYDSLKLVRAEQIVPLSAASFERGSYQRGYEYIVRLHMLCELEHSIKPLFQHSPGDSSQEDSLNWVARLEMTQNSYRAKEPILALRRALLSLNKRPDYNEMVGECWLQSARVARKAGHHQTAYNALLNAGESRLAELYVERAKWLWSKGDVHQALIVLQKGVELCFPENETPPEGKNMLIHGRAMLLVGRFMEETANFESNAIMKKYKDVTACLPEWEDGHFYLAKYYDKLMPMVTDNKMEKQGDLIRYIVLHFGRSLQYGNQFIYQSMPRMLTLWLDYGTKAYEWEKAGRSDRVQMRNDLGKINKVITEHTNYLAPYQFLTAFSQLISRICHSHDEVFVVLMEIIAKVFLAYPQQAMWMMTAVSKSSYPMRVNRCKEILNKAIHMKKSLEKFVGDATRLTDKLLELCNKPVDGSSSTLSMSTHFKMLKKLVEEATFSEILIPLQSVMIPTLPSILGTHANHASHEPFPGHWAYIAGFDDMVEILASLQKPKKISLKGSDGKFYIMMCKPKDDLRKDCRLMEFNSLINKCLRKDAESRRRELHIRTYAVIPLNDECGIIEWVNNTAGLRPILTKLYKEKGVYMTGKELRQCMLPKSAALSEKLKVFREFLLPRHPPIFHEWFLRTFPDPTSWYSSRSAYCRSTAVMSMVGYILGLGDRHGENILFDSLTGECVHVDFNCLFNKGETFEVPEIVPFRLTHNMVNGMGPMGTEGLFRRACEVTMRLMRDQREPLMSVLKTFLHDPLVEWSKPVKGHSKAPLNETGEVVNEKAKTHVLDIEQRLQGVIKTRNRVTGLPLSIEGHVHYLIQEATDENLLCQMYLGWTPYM

CYP3A4 = CYP3A4 (Homo sapiens, UniProt P08684); assay: in vitro; settings: human liver microsomes, probe midazolam
Sequence of CYP3A4 (P08684 whole entry): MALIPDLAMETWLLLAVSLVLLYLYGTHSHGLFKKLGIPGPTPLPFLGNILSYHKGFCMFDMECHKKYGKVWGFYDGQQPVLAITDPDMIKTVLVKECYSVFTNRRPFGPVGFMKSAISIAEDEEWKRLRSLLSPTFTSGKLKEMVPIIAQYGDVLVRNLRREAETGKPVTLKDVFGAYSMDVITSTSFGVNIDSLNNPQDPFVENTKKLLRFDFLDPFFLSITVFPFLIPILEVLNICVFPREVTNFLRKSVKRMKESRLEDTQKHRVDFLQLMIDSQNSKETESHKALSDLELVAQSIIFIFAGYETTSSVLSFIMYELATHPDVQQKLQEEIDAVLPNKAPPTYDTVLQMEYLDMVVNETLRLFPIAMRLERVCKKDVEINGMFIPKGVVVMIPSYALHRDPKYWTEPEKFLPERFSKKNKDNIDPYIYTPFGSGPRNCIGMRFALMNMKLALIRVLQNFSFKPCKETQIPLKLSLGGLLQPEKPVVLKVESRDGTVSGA

Structure (SMILES) | IC50 [1] | IC50 [2] | CLint scaled at 0.75 h, 1 µM (in vitro) | IC50 [3] | inhibition at 10 µM (CYP3A4)
Cc1cc(-c2nc(N=S(C)(C)=O)cc(N3CCOC[C@H]3C)n2)cc(N)n1 | > 10000 nM | – | – | – | –
C[C@@H]1COCCN1c1cc(N=[S@](C)(=O)C2CC2)nc(-c2ccnc3[nH]ccc23)c1 | 9650 nM | 2770 nM | – | – | –
COc1cc(-c2nc(N=[S@](C)(=O)C3COC3)cc(N3CCOC[C@H]3C)n2)cc(N)n1 | 8240 nM | 2980 nM | 2.4 mL/min/kg | – | –
COc1cc(-c2nc(N=[S@@](C)(=O)C3COC3)cc(N3CCOC[C@H]3C)n2)cc(N)n1 | 5250 nM | 421 nM | 13 mL/min/kg | – | –
C[C@@H]1COCCN1c1cc(N=[S@](C)(=O)C2CC2)nc(-c2ccnc3[nH]ccc23)n1 | 2380 nM | 324 nM | – | – | –
CC[S@](C)(=O)=Nc1cc(N2CCOC[C@H]2C)nc(-c2ccnc3[nH]ccc23)n1 | 2160 nM | 891 nM | – | – | –
C[C@@H]1COCCN1c1cc(N=S(C)(C)=O)nc(-c2ccnc(N)c2)c1 | > 10000 nM | – | – | 875 nM | –
C[C@@H]1COCCN1c1cc(C2CCN(S(C)(=O)=O)CC2)nc(-c2ccnc3[nH]ccc23)n1 | 496 nM | 217 nM | – | – | –
COc1cc(-c2nc(N=[S@@](C)(=O)C3CC3)cc(N3CCOC[C@H]3C)n2)cc(N)n1 | 7000 nM | 866 nM | 7.1 mL/min/kg | – | –
C[C@@H]1COCCN1c1cc(N=S(C)(=O)C2CCOCC2)nc(-c2ccnc3[nH]ccc23)n1 (mixture of isomers) | 6360 nM | – | – | – | –
C[C@@H]1COCCN1c1cc(N=S(C)(C)=O)nc(-c2ccnc3[nH]ccc23)c1 | 8500 nM | 1600 nM | – | – | –
Cc1cc2c(-c3nc(N=S(C)(C)=O)cc(N4CCOC[C@H]4C)n3)ccnc2[nH]1 | 3340 nM | 502 nM | – | – | 56%
CC[S@@](C)(=O)=Nc1cc(N2CCOC[C@H]2C)nc(-c2ccnc3[nH]ccc23)n1 | 1710 nM | 1120 nM | – | – | –
C[C@@H]1COCCN1c1cc(C2CCCN(S(C)(=O)=O)C2)nc(-c2ccnc3[nH]ccc23)n1 (mixture of isomers) | 1300 nM | 113 nM | – | 134 nM | –
C[C@@H]1COCCN1c1cc(C2CCCS2(=O)=O)nc(-c2ccnc3[nH]ccc23)n1 (mixture of isomers) | 3900 nM | 274 nM | – | – | –

Continued, values first:

IC50 [1] | IC50 [2] | CLint scaled at 0.75 h, 1 µM (in vitro) | IC50 [3] | inhibition at 10 µM (CYP3A4) | Structure (SMILES)
8200 nM | 1190 nM | – | – | – | C[C@@H]1COCCN1c1cc(N=[S@@](C)(=O)C2CC2)nc(-c2ccnc3[nH]ccc23)c1
420 nM | 81 nM | – | – | – | C[C@@H]1COCCN1c1cc(N2CCCN(C)S2(=O)=O)nc(-c2ccnc3[nH]ccc23)n1
15400 nM | 4780 nM | – | – | – | C[C@@H]1COCCN1c1cc(N=S(C)(C)=O)nc(-c2ccnc(N)c2)n1
> 10000 nM | – | – | – | – | C[C@@H]1COCCN1c1cc(-c2ccnc3[nH]ccc23)nc(N=S(C)(C)=O)n1
8260 nM | 2210 nM | – | – | – | COc1cc(-c2nc(N=S(C)(C)=O)cc(N3CCOC[C@H]3C)n2)cc(N)n1
1660 nM | 165 nM | – | – | – | C[C@@H]1COCCN1c1cc(N=[S@@](C)(=O)C2CC2)nc(-c2ccnc3[nH]ccc23)n1
2400 nM | 419 nM | – | – | – | C[C@@H]1COCCN1c1cc(N=S(C)(C)=O)nc(-c2ccnc3[nH]ccc23)n1
2190 nM | 307 nM | – | – | – | C[C@@H]1COCCN1c1cc(N=S(C)(=O)C2COC2)nc(-c2ccnc3[nH]ccc23)n1 (mixture of isomers)
